Our source for the T/C values is PubChem BioAssay AID248 (DTP/NCI, 2004).

The test deals with L1210 leukemia ip in BDF1 mice, survival T/C. Put plainly: NCI In Vivo Anticancer Drug Screen. Data for tumor model L1210 Leukemia (intraperitoneal) in B6D2F1 (BDF1) mice. As to conditions: endpoint: mean survival time, higher = longer survival. The method, boiled down:
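Tumor was transplanted into mice, which were then dosed with test compound or vehicle alone. Survival was recorded for each group, and the treated figure was expressed relative to the control figure.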

[1] abbreviates: dose: 25.0 mg/kg/injection, schedule: Q04DX003 (ip), vehicle: saline.
[2] abbreviates: dose: 50.0 mg/kg/injection, schedule: Q04DX003 (ip), vehicle: saline.
Where [3] appears, read: dose: 100.0 mg/kg/injection, schedule: Q01DX009 (ip), vehicle: saline.
Where [4] appears, read: dose: 100.0 mg/kg/injection, schedule: Q04DX003 (ip), vehicle: saline.
Setting [5] is: dose: 200.0 mg/kg/injection, schedule: Q01DX009 (ip), vehicle: saline.
[6] abbreviates: dose: 200.0 mg/kg/injection, schedule: Q04DX003 (ip), vehicle: saline.
The mark [7] stands for this setting: dose: 100.0 mg/kg/injection, schedule: Q01DX001 (ip), vehicle: other.
Setting [8] is: dose: 400.0 mg/kg/injection, schedule: Q01DX001 (ip), vehicle: other.
[9] abbreviates: dose: 100.0 mg/kg/injection, schedule: Q01DX001 (ip), vehicle: Klucel (hydroxypropylcellulose) (HPC).
The mark [10] stands for this setting: dose: 200.0 mg/kg/injection, schedule: Q01DX001 (ip), vehicle: Klucel (hydroxypropylcellulose) (HPC).
Setting [11] is: dose: 400.0 mg/kg/injection, schedule: Q01DX001 (ip), vehicle: Klucel (hydroxypropylcellulose) (HPC).
The mark [12] stands for this setting: dose: 50.0 mg/kg/injection, schedule: Q01DX009 (ip), vehicle: saline with Tween-80.
[13] abbreviates: dose: 100.0 mg/kg/injection, schedule: Q01DX009 (ip), vehicle: saline with Tween-80.
Where [14] appears, read: dose: 200.0 mg/kg/injection, schedule: Q01DX009 (ip), vehicle: saline with Tween-80.
Setting [15] is: dose: 400.0 mg/kg/injection, schedule: Q01DX009 (ip), vehicle: saline with Tween-80.

The structures appear in SMILES notation. Several values for one entry are separate records, joined by “and”; a condition that tells them apart may be missing. Identical values can stand only once. Toxic doses and inconclusive results are not listed.

As to `COc1ccc(CC(N)C(=O)OCc2ccccc2)cc1N(CCCl)CCCl` (configuration not stated), the T/C by setting is: (dose: 0.08 mg/kg/injection, schedule: Q01DX009 (ip), vehicle: saline) 113 % of control; (dose: 0.15 mg/kg/injection, schedule: Q01DX009 (ip), vehicle: saline) 118 % of control; (dose: 0.3 mg/kg/injection, schedule: Q01DX009 (ip), vehicle: saline) 118 % of control; (dose: 0.75 mg/kg/injection, schedule: Q01DX001 (ip), vehicle: saline) 110 % of control; (dose: 1.5 mg/kg/injection, schedule: Q01DX001 (ip), vehicle: saline) 104 % of control; (dose: 6.0 mg/kg/injection, schedule: Q01DX009 (ip), vehicle: saline) 93 % of control. Besides, the T/C (dose: 12.5 mg/kg/injection, schedule: Q01DX001 (ip), vehicle: saline) is 155 % of control.
Consider `Nc1cccc(OCCc2ccccc2)c1`, for which the T/C was 96 % of control (dose: 100.0 mg/kg/injection, schedule: Q01DX001 (ip), vehicle: saline with Tween-80); 94 % of control (dose: 200.0 mg/kg/injection, schedule: Q01DX001 (ip), vehicle: saline with Tween-80); 96 % of control (dose: 400.0 mg/kg/injection, schedule: Q01DX001 (ip), vehicle: saline with Tween-80).
Take `Cc1ccc(S(=O)(=O)OCC2CO2)c(C)c1` (configuration not stated): the T/C (dose: 50.0 mg/kg/injection, schedule: Q01DX007 (ip), vehicle: saline with Tween-80) is 106 % of control; the T/C (dose: 100.0 mg/kg/injection, schedule: Q01DX007 (ip), vehicle: saline with Tween-80) was 103 % of control; the T/C (dose: 200.0 mg/kg/injection, schedule: Q01DX007 (ip), vehicle: saline with Tween-80) is 94 % of control.
With `COc1cc(C(=O)OCCCN2CCOCC2)cc(OC)c1OC`, the T/C runs as follows: (dose: 25.0 mg/kg/injection, schedule: Q01DX009 (ip), vehicle: saline) 107 % of control; under setting [1], 106 % of control; (dose: 50.0 mg/kg/injection, schedule: Q01DX009 (ip), vehicle: saline) 92 % of control; under setting [2], 101 % of control; under setting [3], 92 % of control; under setting [4], 98 % of control. For the same compound, the T/C under setting [5] is 105 % of control; the T/C under setting [6] is 98 % of control; the T/C (dose: 400.0 mg/kg/injection, schedule: Q01DX009 (ip), vehicle: saline) was 100 % of control; the T/C (dose: 400.0 mg/kg/injection, schedule: Q04DX003 (ip), vehicle: saline) is 95 % of control.
For `CC(C)=CCC1=C(O)C(C)=CC(=O)C1=O`, the T/C is, setting by setting: (dose: 100.0 mg/kg/injection, schedule: Q01DX001 (ip), vehicle: water) 97 % of control; (dose: 200.0 mg/kg/injection, schedule: Q01DX001 (ip), vehicle: water) 94 % of control; (dose: 400.0 mg/kg/injection, schedule: Q01DX001 (ip), vehicle: water) 97 % of control.
Turning to `Nc1cccc(COc2ccccc2)c1`, the T/C under setting [4] was 90 % of control and the T/C under setting [6] was 92 % of control.
Turning to `Cc1c(C)c(C)c(CNNC(=S)Nc2ccc(S(=O)(=O)N3CCCCC3)cc2)c(C)c1C`, the T/C is 104 % of control (dose: 100.0 mg/kg/injection, schedule: Q04DX002 (ip), vehicle: Klucel (hydroxypropylcellulose) (HPC)); 92 % of control (dose: 200.0 mg/kg/injection, schedule: Q04DX002 (ip), vehicle: Klucel (hydroxypropylcellulose) (HPC)); 95 % of control (dose: 400.0 mg/kg/injection, schedule: Q04DX002 (ip), vehicle: Klucel (hydroxypropylcellulose) (HPC)).
For the compound `Clc1ccccc1C(c1ccc(I)cc1)C(Cl)Cl` (configuration not stated), the T/C (dose: 100.0 mg/kg/injection, schedule: Q01DX001 (ip), vehicle: saline) was 101 % of control; the T/C (dose: 200.0 mg/kg/injection, schedule: Q01DX001 (ip), vehicle: saline) was 93 % of control; the T/C (dose: 400.0 mg/kg/injection, schedule: Q01DX001 (ip), vehicle: saline) was 104 % of control.
Regarding `Nc1nc(N)[n+]([O-])c(N)c1NCO`, the T/C is 101 % of control (dose: 88.0 mg/kg/injection, schedule: Q01DX001 (ip), vehicle: other); 97 % of control under setting [7]; 103 % of control (dose: 133.0 mg/kg/injection, schedule: Q01DX001 (ip), vehicle: other); 103 % of control (dose: 300.0 mg/kg/injection, schedule: Q01DX001 (ip), vehicle: other); 94 % of control under setting [8].
As for `Cn1ncc2c(Cl)ncnc21`, the T/C runs as follows: under setting [7], 113 % of control; (dose: 200.0 mg/kg/injection, schedule: Q01DX001 (ip), vehicle: other) 94 % of control; under setting [8], 102 % of control.
`Cc1ccc([N+](=O)[O-])cc1NC(=O)SCc1ccccc1`: the T/C runs as follows: (dose: 100.0 mg/kg/injection, schedule: Q04DX003 (ip), vehicle: Klucel (hydroxypropylcellulose) (HPC)) 93 % of control; (dose: 200.0 mg/kg/injection, schedule: Q04DX003 (ip), vehicle: Klucel (hydroxypropylcellulose) (HPC)) 102 % of control; (dose: 400.0 mg/kg/injection, schedule: Q04DX003 (ip), vehicle: Klucel (hydroxypropylcellulose) (HPC)) 105 % of control.
`CCCCCCNC(=O)Oc1cccc(NC(=O)CC)c1`: the T/C by setting is: (dose: 100.0 mg/kg/injection, schedule: Q04DX003 (ip), vehicle: saline with Tween-80) 104 % of control; (dose: 200.0 mg/kg/injection, schedule: Q04DX003 (ip), vehicle: saline with Tween-80) 88 % of control; (dose: 400.0 mg/kg/injection, schedule: Q04DX003 (ip), vehicle: saline with Tween-80) 102 % of control.
In the case of `CCOC(=O)c1oc(C)nc1C`, the T/C was 122 % of control under setting [9], 97 % of control under setting [10] and 101 % of control under setting [11].
Turning to `CCN(CC)CCn1c2ccccc2c2cnccc21`, the T/C under setting [1] was 100 % of control and the T/C under setting [2] is 97 % of control.
Turning to `O=C(NN1C(=O)CSC1=S)c1ccc([N+](=O)[O-])s1`, the T/C is, setting by setting: (dose: 50.0 mg/kg/injection, schedule: Q01DX005 (ip), vehicle: saline) 96 % of control; (dose: 100.0 mg/kg/injection, schedule: Q01DX005 (ip), vehicle: saline) 102 % of control.
As to `O=c1[nH]nc(-c2ccccn2)o1`, the T/C is, setting by setting: under setting [12], 97 % of control; under setting [13], 90 % of control; under setting [14], 97 % of control.
As for `CC(=O)OCC(OC(C)=O)C(OC(C)=O)C(OC(C)=O)C(O)C#N` (configuration not stated), the T/C was 93 % of control (dose: 12.5 mg/kg/injection, schedule: Q01DX009 (ip), vehicle: saline with Tween-80); 93 % of control (dose: 25.0 mg/kg/injection, schedule: Q01DX009 (ip), vehicle: saline with Tween-80); 97 % of control and 100 % of control under setting [12].
`CC1=CC(C)(C)NC(=S)N1c1cc(Cl)ccc1Cl`: the T/C under setting [13] was 87 % of control; the T/C under setting [14] was 90 % of control; the T/C (dose: 224.0 mg/kg/injection, schedule: Q01DX Z (ip), vehicle: methylcellulose (MC)) was 105 % of control; the T/C (dose: 334.0 mg/kg/injection, schedule: Q01DX Z (ip), vehicle: methylcellulose (MC)) was 89 % of control; the T/C under setting [15] was 92 % of control; the T/C (dose: 500.0 mg/kg/injection, schedule: Q01DX Z (ip), vehicle: methylcellulose (MC)) was 86 % of control.
Consider `CCOC1OCN(C(C)(C)C)CC1(C)C` (configuration not stated), for which the T/C runs as follows: under setting [3], 118 % of control; under setting [5], 116 % of control.
On to `CCOC(=S)c1ccc(S(=O)(=O)Nc2cccc3ccccc23)cc1`, for which the T/C runs as follows: under setting [9], 97 % of control; under setting [10], 98 % of control; under setting [11], 95 % of control.
In the case of `CC(=O)C1CCC2C3=CC=C4CC(OC(=O)C5CCCCC5)CCC4(C)C3=CCC12C` (configuration not stated), the T/C is 100 % of control under setting [13], 89 % of control under setting [14] and 108 % of control under setting [15].
`CC(=O)OC1CCC2(C)C(CCC3C2CCC2(C)C(C(C)O)CCCC32)C1` (configuration not stated): the T/C under setting [9] was 88 % of control and the T/C under setting [10] was 98 % of control.
